Reference: patent EP4717694A1, “PYRAZOLFORMYL PIPERAZINONE COMPOUND, PHARMACEUTICAL COMPOSITION AND USE THEREOF” (Iregene Therapeutics Co., Ltd., priority 2023, dated 2024)

Columns and labels:
Assay type in all cases: cell-based
glioma U251 cells = experiment: Treatment of glioma cells, qPCR transcriptional analysis (CASP3) and cytotoxicity versus LY2157299
Method: In this example, compound II-1 and the reference compound LY2157299 were used to treat glioma U251 cells. Samples were collected at 12 hours and 72 hours posttreatment. Total RNA was extracted using the Rneasy Mini or Micro Kit (QIAGEN), and […] of RNA was reverse-transcribed into cDNA using the SuperScript III First-Strand Synthesis System (Invitrogen). Quantitative PCR was performed using SYBR Premix Ex Taq (TaKaRa) on a Thermal Cycler Dice Real-Time System (TaKaRa), with beta-Actin serving as an internal control. All data were analyzed using the delta-Ct method. Each experiment was performed in triplicate, and variance analysis was conducted. […] Table 3. Primers for transcriptional analysis of cells treated with compound II-1

H9 = experiment: CCK-8 cell viability assay
Method: (§1) Tumor cells OVCAR3 (ovarian cancer), HeLa ([…]), U251 (glioma), H9 cells, and non-tumor HEK293 cells were cultured in DMEM/F12 medium supplemented with 10% FBS and 1% P/S. When cells reached 70% confluency, they were digested with 0.25% Trypsin at 37°C for 2-3 minutes, and digestion was stopped with DMEM/F12 medium. Cell suspensions were collected in 15 mL centrifuge tubes, centrifuged at 1000 rpm for 5 minutes, the supernatant was discarded, and cells were resuspended in DMEM/F12 medium with 10% FBS and 1% P/S. Cells were counted using a hemocytometer, and based on the counts, they were resuspended to the desired concentration. Tumor cells were seeded in 96-well plates at 1×10^4 cells per well, 100 µL per well. From day 1 to day 7 after seeding, cells were treated with compound II-1 at 0 µM, 10 µM, 30 µM, and 50 µM (the pyrazolecarbonyl piperazinone compounds were diluted to 10 µM, 30 µM, and 50 µM with DMEM + 10% FBS). Each concentration was tested in triplicate wells.
(§2) Cell viability on days 1, 3, 5, and 7 was determined using the CCK-8 cell proliferation/cytotoxicity assay kit (Vazyme, A311-02) by measuring absorbance at OD450 nm, with wells containing only medium and CCK-8 solution as blank controls. Each concentration was measured in triplicate.
(§3) Calculation of cell survival rate: For the same cell type at the same time point, the absorbance of cells not treated with compound II-1 was set as 100% baseline. For cells treated with different concentrations, the absorbance was compared with the control group (CK) to calculate the relative proportion. For example, the survival rate of H9 cells on day 4 treated with 30 µM of the small molecule compound was calculated as follows: [OD(D4)30μMiPS]/[OD(D4)0μMH9] × 100% [formula] Table 2. Cell survival rates of various cell types after treatment with different concentrations of compound II-1 measured by CCK-8 assay

U251 = experiment: CCK-8 cell viability assay
Method: as §1, §2, §3

Hela = experiment: CCK-8 cell viability assay
Method: as §1, §2, §3

HEK293 = experiment: CCK-8 cell viability assay
Method: as §1, §2, §3

O=C1CN(C(=O)c2n[nH]c3c2CCC3)[C@H]2CCCC[C@@H]2N1 [II-1, (4aS,8aS)-4-(1,4,5,6-tetrahydrocyclopenta[c]pyrazole-3-carbonyl)octahydroquinoxalin-2(1H)-one]
cells remaining in the wells compared to LY2157299 (glioma U251 cells; after 72 hours of treatment, Figure 3): fewer cells remained | apoptosis compared to LY2157299 (glioma U251 cells; same concentration as LY2157299, Figure 3): higher apoptosis | Cell survival rate (H9; H9, II-1 10 µM, Day 1 Treatment): 90.37% | Cell survival rate (H9; H9, II-1 10 µM, Day 3 Treatment): 92.91% | Cell survival rate (H9; H9, II-1 10 µM, Day 5 Treatment): 84.84% | Cell survival rate (H9; H9, II-1 10 µM, Day 7 Treatment): 83.47% | Cell survival rate (H9; H9, II-1 30 µM, Day 1 Treatment): 84.96% | Cell survival rate (H9; H9, II-1 30 µM, Day 3 Treatment): 86.01% | Cell survival rate (H9; H9, II-1 30 µM, Day 5 Treatment): 80.25% | Cell survival rate (H9; H9, II-1 30 µM, Day 7 Treatment): 78.71% | Cell survival rate (H9; H9, II-1 50 µM, Day 1 Treatment): 76.96% | Cell survival rate (H9; H9, II-1 50 µM, Day 3 Treatment): 73.87% | Cell survival rate (H9; H9, II-1 50 µM, Day 5 Treatment): 69.10% | Cell survival rate (H9; H9, II-1 50 µM, Day 7 Treatment): 65.98% | cell viability, course with time and concentration (H9; H9, II-1 10-50 µM, days 1-7): gradual decline in viability | Cell survival rate (U251; U251, II-1 10 µM, Day 1 Treatment): 100.75% | Cell survival rate (U251; U251, II-1 10 µM, Day 3 Treatment): 98.96% | Cell survival rate (U251; U251, II-1 10 µM, Day 5 Treatment): 95.19% | Cell survival rate (U251; U251, II-1 10 µM, Day 7 Treatment): 94.74% | Cell survival rate (U251; U251, II-1 30 µM, Day 1 Treatment): 99.49% | Cell survival rate (U251; U251, II-1 30 µM, Day 3 Treatment): 87.01% | Cell survival rate (U251; U251, II-1 30 µM, Day 5 Treatment): 79.39% | Cell survival rate (U251; U251, II-1 30 µM, Day 7 Treatment): 74.00% | Cell survival rate (U251; U251, II-1 50 µM, Day 1 Treatment): 98.61% | Cell survival rate (U251; U251, II-1 50 µM, Day 3 Treatment): 85.27% | Cell survival rate (U251; U251, II-1 50 µM, Day 5 Treatment): 70.43% | Cell survival rate (U251; U251, II-1 50 µM, Day 7 Treatment): 63.89% | cell viability, course with time and concentration (U251; U251, II-1 10-50 µM, days 1-7): gradual decrease in cell viability over time | Cell survival rate (Hela; II-1 10 µM, Day 1 Treatment): 103.32% | Cell survival rate (Hela; II-1 10 µM, Day 3 Treatment): 98.58% | Cell survival rate (Hela; II-1 10 µM, Day 5 Treatment): 97.35% | Cell survival rate (Hela; II-1 10 µM, Day 7 Treatment): 97.27% | Cell survival rate (Hela; II-1 30 µM, Day 1 Treatment): 100.64% | Cell survival rate (Hela; II-1 30 µM, Day 3 Treatment): 93.45% | Cell survival rate (Hela; II-1 30 µM, Day 5 Treatment): 90.71% | Cell survival rate (Hela; II-1 30 µM, Day 7 Treatment): 85.04% | Cell survival rate (Hela; II-1 50 µM, Day 1 Treatment): 88.66% | Cell survival rate (Hela; II-1 50 µM, Day 3 Treatment): 81.80% | Cell survival rate (Hela; II-1 50 µM, Day 5 Treatment): 80.31% | Cell survival rate (Hela; II-1 50 µM, Day 7 Treatment): 75.83% | cell viability, course with time and concentration (Hela; II-1 10-50 µM, days 1-7): gradual decrease in cell viability over time | Cell survival rate (HEK293; HEK293, II-1 10 µM, Day 1 Treatment): 96.09% | Cell survival rate (HEK293; HEK293, II-1 10 µM, Day 3 Treatment): 96.67% | Cell survival rate (HEK293; HEK293, II-1 10 µM, Day 5 Treatment): 98.80% | Cell survival rate (HEK293; HEK293, II-1 10 µM, Day 7 Treatment): 99.24% | Cell survival rate (HEK293; HEK293, II-1 30 µM, Day 1 Treatment): 93.69% | Cell survival rate (HEK293; HEK293, II-1 30 µM, Day 3 Treatment): 94.14% | Cell survival rate (HEK293; HEK293, II-1 30 µM, Day 5 Treatment): 94.39% | Cell survival rate (HEK293; HEK293, II-1 30 µM, Day 7 Treatment): 94.97% | Cell survival rate (HEK293; HEK293, II-1 50 µM, Day 1 Treatment): 80.80% | Cell survival rate (HEK293; HEK293, II-1 50 µM, Day 3 Treatment): 90.72% | Cell survival rate (HEK293; HEK293, II-1 50 µM, Day 5 Treatment): 92.46% | Cell survival rate (HEK293; HEK293, II-1 50 µM, Day 7 Treatment): 93.56% | cell viability, course with time and concentration (HEK293; non-tumor HEK293, II-1 10-50 µM, days 1-7): did not show significant changes
